Reference: US5470872A, “Benzopyranols” (Beecham Group plc, priority 1988, dated 1995)

How the values were obtained:
[1] = system: guinea pig tracheal spiral preparations; assay: Bronchodilation in vitro; guinea pig tracheal spiral preparations; format: cell-based; conditions: Cavia porcellus, relaxation of guinea pig tracheal spirals, relative to total relaxation with 10^-3 M isoprenaline; for Emax: read-out: I.A (efficacy, Intrinsic Activity)
Method: (a) Bronchodilation in vitro; guinea pig tracheal spiral preparations
Male guinea pigs (300-600 g) were stunned by a blow to the head and bled from the carotid artery. The trachea was exposed, dissected free of connective tissue, and transferred to oxygenated krebs solution at 37° C. Next, spirals (2 per trachea) were prepared by cutting the whole trachea spirally along its longitudinal axis and then dividing this spiral lengthwise. Each preparation was mounted, using silk thread, in a 10 ml organ bath filled with krebs solution at 37° C. and bubbled with 5% CO2 with O2. The resting tension of the preparations was set at 2 g and changes in muscle tension were monitored isometrically by means of a UFI (2 oz) force and displacement transducer (Ormed Ltd) connected to a Linseis pen recorder. All preparations were allowed to equilibrate for 60 minutes. During this equilibration period the preparations were washed by upward displacement at 15 minute intervals and, if necessary, the resting tension was readjusted to 2 g using a mechanical micromanipulator system.
Once a steady resting tension had been obtained, the preparations were dosed cumulatively with the test compound (10^-8 -2×10^-5 M), and finally a maximum relaxation achieved by addition of 10^-3 M isoprenaline. The fall in tension evoked by the test compound was expressed as a percentage of the total relaxation evoked in the presence of 10^-3 M isoprenaline. Appropriate concentration-relaxation curves were then constructed and values for potency (IC50) and efficacy (Intrinsic Activity, I.A.) were obtained.
The composition of Krebs solution is: sodium chloride 118.07 mM, sodium hydrogen carbonate 26.19 mM, potassium chloride 4.68 mM, potassium orthophosphate 1.18 mM, magnesium sulphate septahydrate 1.8 mM and calcium chloride 2.52 mM; pH ca. 7.45.

[2] = system: Spontaneously hypertensive rats; assay: Blood pressure lowering activity, tail cuff method, spontaneously hypertensive rats; format: in vivo, rat
Method: Blood Pressure Lowering Activity
Systolic blood pressures were recorded by a modification of the tail cuff method described by I. M. Claxton, M. G. Palfreyman, R. H. Poyser, R. L. Whiting, European Journal of Pharmacology, 37,179 (1976). A W+W BP recorder, model 8005 was used to display pulses. Prior to all measurements rats were placed in a heated environment (33.5°±0.5° C.) before transfer to a restraining cage. Each determination of blood pressure was the mean of at least 6 readings. Spontaneously hypertensive rats (ages 12-18 weeks) with systolic blood pressures >180 mmHg were considered hypertensive.

SMILES | IC50 [1] [nM] | Emax [1] [%] | also measured
CC1(C)Oc2ccc(C(F)(F)C(F)(F)F)cc2[C@@H](N2CCCC2=O)[C@@H]1O (relative stereo) [Example 1, Trans-3,4-Dihydro-2,2-dimethyl-6-pentafluoroethyl-4-(2-oxopyrrolidin-1-yl)-2H-1-benzopyran-3-ol] | 190 | 88 | % change in systolic B.P. 1 h ([2]; 0.1 mg/kg p.o.): -19 ± 3%; % change in systolic B.P. 2 h ([2]; 0.1 mg/kg p.o.): -30 ± 2%; % change in systolic B.P. 4 h ([2]; 0.1 mg/kg p.o.): -28 ± 2%
CC1(C)Oc2ccc(C(F)(F)C(F)(F)F)cc2[C@@H](N2CCCCC2=O)[C@@H]1O (relative stereo) [Example 4, Trans-3,4-dihydro-2,2-dimethyl-4-(2-oxopiperidin-1-yl)-6-pentafluoroethyl-2H-1-benzopyran-3-ol] | – | 90 | % change in systolic B.P. 1 h ([2]; 0.3 mg/kg p.o.): -36 ± 3%; % change in systolic B.P. 2 h ([2]; 0.3 mg/kg p.o.): -30 ± 1%; % change in systolic B.P. 4 h ([2]; 0.3 mg/kg p.o.): -26 ± 2%
CC1(C)Oc2ccc(C(F)(F)C(F)(F)F)cc2[C@@H](n2ccccc2=O)[C@@H]1O (relative stereo) [Example 5, Trans-3,4-dihydro-2,2-dimethyl-6-pentafluoroethyl-4-(2(1H)-pyridon-1-yl)-2H-1-benzopyran-3-ol] | 150 | 97 | –
CC1(C)C=C(N2CCCC2=O)c2cc(C(F)(F)C(F)(F)F)ccc2O1 [Example 2, 2,2-Dimethyl-6-pentafluoroethyl-4-(2-oxopyrrolidin-1-yl)-2H-1-benzopyran] | 98 | 96 | % change in systolic B.P. 1 h ([2]; 1.0 mg/kg p.o.): -38 ± 2%; % change in systolic B.P. 2 h ([2]; 1.0 mg/kg p.o.): -24 ± 10%; % change in systolic B.P. 4 h ([2]; 1.0 mg/kg p.o.): -18 ± 6%
CC1(C)Oc2ccc(C(O)C(F)(F)F)cc2[C@@H](N2CCCC2=O)[C@@H]1O (some centres unmarked) [Example 3] | 370 | 89 | % change in systolic B.P. 1 h ([2]; 0.3 mg/kg p.o.): -40 ± 10%; % change in systolic B.P. 2 h ([2]; 0.3 mg/kg p.o.): -29 ± 7%; % change in systolic B.P. 4 h ([2]; 0.3 mg/kg p.o.): -25 ± 7%
CC1(C)Oc2ccc(C(F)(F)C(F)(F)F)cc2[C@@H](N2CCCCC2=O)[C@@H]1O [Example 6, (-)-Trans-3,4-dihydro-2,2-dimethyl-4-(2-oxopiperidin-1-yl)-6-pentafluoroethyl-2H-1-benzopyran-3-ol] | – | 93 | –
CC1(C)C=C(N2CCCCC2=O)c2cc(C(F)(F)C(F)(F)F)ccc2O1 [Example 8, 2,2-Dimethyl-6-pentafluoroethyl-4-(2-oxopiperidin-1-yl)-2H-1-benzopyran] | 190 | 88 | –
CC1(C)C=C(n2ccccc2=O)c2cc(C(F)(F)C(F)(F)F)ccc2O1 [Example 9, 2,2-Dimethyl-6-pentafluoroethyl-4-(2(1H)pyridon-1-yl)-2H-1-benzopyran] | 71.5 | 84 | –
